This is an account of results in article PMC9784874, “Inhibitors of HIV-1 and Cathepsin L Proteases Identified from the Insect Gall of Hypericum kouytchense” (Pharmaceuticals, 2022).

Where two headings read alike, the source gives them in different places.

Test [1] deals with HIV replication in H9 lymphocytes. Further details: method as in PMID 15987189. Conditions: cited from earlier work.
The target of another test is T1, HIV-1 PR (Human immunodeficiency virus type 1 group M subtype B, UniProt P04585).
T1 construct: 10.0, 4.0, 3.2 and 17.0 µg/mL against HIV-1 protease
Kind of test: Fluorimetric HIV-1 protease inhibition assay. In kind it is biochemical. Here is the method: (§1) The inhibitory activities against HIV-1, Cat L and Renin PRs were assayed by fluorimetric methods using our previously published protocols.

Another test has as its target Cat L PR (Homo sapiens, UniProt P07711). Kind of test: Fluorimetric cathepsin L protease inhibition assay. In kind it is biochemical. The conditions noted are these: read-out: Cat L PR Inhi% at 100.0 µg/mL. Here is the method: as §1
Another test addresses T2, human renin (Homo sapiens, UniProt P00797).
T2 sequence (P00797 67-406): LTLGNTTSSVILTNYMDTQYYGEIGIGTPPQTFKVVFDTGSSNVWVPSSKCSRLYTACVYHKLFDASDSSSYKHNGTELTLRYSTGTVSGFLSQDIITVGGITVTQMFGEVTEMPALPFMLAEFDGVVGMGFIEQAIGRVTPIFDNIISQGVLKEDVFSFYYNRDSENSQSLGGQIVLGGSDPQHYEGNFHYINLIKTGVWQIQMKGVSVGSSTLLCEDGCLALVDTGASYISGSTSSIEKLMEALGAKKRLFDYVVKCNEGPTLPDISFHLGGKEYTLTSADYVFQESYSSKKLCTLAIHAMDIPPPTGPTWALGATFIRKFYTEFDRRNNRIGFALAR
The experiment in a line: Fluorimetric renin protease inhibition assay. The class given is biochemical. Conditions: extracts, n = 3. How it is done: as §1

Where [2] appears, read: active compounds, n = 3, read-out: HIV-1 PR IC50 (converted).

Chain of Cat L PR (P07711 114-333): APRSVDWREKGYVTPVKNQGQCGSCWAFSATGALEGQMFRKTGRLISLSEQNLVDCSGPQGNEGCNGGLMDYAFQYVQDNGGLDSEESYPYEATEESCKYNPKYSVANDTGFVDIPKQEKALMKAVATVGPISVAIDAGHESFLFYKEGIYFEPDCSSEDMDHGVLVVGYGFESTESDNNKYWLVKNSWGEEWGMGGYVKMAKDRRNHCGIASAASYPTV

Consider `C=C[C@@]1(C)COC(=O)[C@]12O[C@]1(c3ccccc3)[C@H](C2=O)[C@H]2[C@H]([C@H](C)CCC=C(C)C)CC=C(C)[C@H]21` [Biyouyanagin A], for which, in test [1], the “therapeutic index (TI)” value was “higher than 31.3”.

Take `Oc1cc(O)c2c(c1)O[C@H](c1ccc(O)c(O)c1)[C@H](O)C2` [Epicatechin]: the “HIV-1 PR Inhi% at 1000.0 µg/mL” value at HIV-1 PR (n = 3) was 66.0 ± 3.79%. Further, on HIV-1 PR (setting [2]), the IC50 is 2760 µM. Moreover, the inhibition at 100 µg/mL on Cat L PR (100.0 µg/mL, n = 3) was -17.7 ± 2.35%.

On HIV-1 PR, `O=C1C[C@@H](c2ccc(O)c(O)c2)Oc2cc(O)cc(O)c21` [Eriodictyol, Eriodicytiol] showed a half-inhibitory concentration (IC50) of 659 µM. The “HIV-1 PR Inhi% at 1000.0 µg/mL” value at HIV-1 PR (n = 3) was 100.0 ± 4.98%. Moreover, the inhibition at 100 µg/mL on Cat L PR (100.0 µg/mL, n = 3) came to 14.3 ± 2.32%.

Compound `Cc1cc(O)c2c(=O)c3c(O)cc(O)c4c5c(O)cc(O)c6c(=O)c7c(O)cc(C)c8c1c2c(c34)c(c78)c65` [Hypericin] showed an IC50 at HIV-1 PR of 3.57 µM. Also, the “HIV-1 PR Inhi% at 1000.0 µg/mL” value on HIV-1 PR (n = 3) was 100.0 ± 7.87%. The inhibition at 100 µg/mL at Cat L PR (100.0 µg/mL, n = 3) is 79.4 ± 2.02%.

`O=c1c(O[C@@H]2O[C@H](CO)[C@H](O)[C@H](O)[C@H]2O)c(-c2ccc(O)c(O)c2)oc2cc(O)cc(O)c12` [Hyperoside] gave an IC50 at HIV-1 PR of 84 µM. The “HIV-1 PR Inhi% at 1000.0 µg/mL” value at HIV-1 PR (n = 3) is given as 72.6 ± 1.40%. Besides, at Cat L PR (100.0 µg/mL, n = 3), the inhibition at 100 µg/mL came out at 11.8 ± 2.56%.

`O=C(/C=C/c1ccc(O)cc1)c1c(O)cc(O)cc1O` [Naringenin chalcone]: the “HIV-1 PR Inhi% at 1000.0 µg/mL” value on HIV-1 PR (n = 3) was determined as 100.0 ± 1.96%. Also, the concentration for half-maximal inhibition (IC50) on HIV-1 PR (setting [2]) was 121 µM. Further, on Cat L PR (100.0 µg/mL, n = 3), the inhibition at 100 µg/mL is 22.2 ± 6.77%.

Take `O=c1c(O)c(-c2ccc(O)c(O)c2)oc2cc(O)cc(O)c12` [Quercetin]: the “HIV-1 PR Inhi% at 1000.0 µg/mL” value on HIV-1 PR (n = 3) was found to be 50.3 ± 1.40%. Besides, the inhibition at 100 µg/mL at Cat L PR (100.0 µg/mL, n = 3) is -3.67 ± 6.59%.

As for `C[C@@H]1O[C@@H](Oc2c(-c3ccc(O)c(O)c3)oc3cc(O)cc(O)c3c2=O)[C@H](O)[C@H](O)[C@H]1O` [Quercitrin], the “HIV-1 PR Inhi% at 1000.0 µg/mL” value at HIV-1 PR (n = 3) is given as 94.4 ± 7.86%. In addition, the IC50 at HIV-1 PR (setting [2]) is 44.6 µM. The inhibition at 100 µg/mL at Cat L PR was found to be 16.3 ± 3.24%.

Regarding `C[C@@H]1O[C@@H](OC[C@H]2O[C@@H](Oc3c(-c4ccc(O)c(O)c4)oc4cc(O)cc(O)c4c3=O)[C@H](O)[C@@H](O)[C@@H]2O)[C@H](O)[C@H](O)[C@H]1O` [Rutin], the “HIV-1 PR Inhi% at 1000.0 µg/mL” value at HIV-1 PR (n = 3) was 24.8 ± 3.85%. For the same compound, on Cat L PR (100.0 µg/mL, n = 3), the inhibition at 100 µg/mL was -4.81 ± 3.8%.

Regarding `C[C@@H]1O[C@@H](Oc2cc(O)c3c(c2)O[C@H](c2ccc(O)c(O)c2)[C@@H](O)C3=O)[C@H](O)[C@H](O)[C@H]1O` [Taxifolin-7-O-rhamnoside], the “HIV-1 PR Inhi% at 1000.0 µg/mL” value at HIV-1 PR (n = 3) was determined as 68.4 ± 5.45%. Moreover, the IC50 at HIV-1 PR (setting [2]) was 1220 µM. Besides, on Cat L PR (100.0 µg/mL, n = 3), the inhibition at 100 µg/mL worked out at 18.1 ± 0.95%.

In the case of Ac–HPFV–(Sta)–LF–NH2 [Renin inhibitor], the “IC50 Renin PR” value against human renin was 0.9 µg/mL.
